Test results as given in PMC11099041, “Tissue distribution and retention drives efficacy of rapidly clearing VHL-based PROTACs” (Communications Medicine, 2024).
Where two headings read alike, the source gives them in different places.

Experiment: Mouse pharmacokinetics in CD-1 mice (blood, kidney, liver, lung)
Format: in vivo
Settings: for Tmax: mouse, dose = c0, matrix = c1 of the line
Method: For the PK study, a total of 42 male CD-1 mice weighing ~20-35 g were acquired from Lingchang/Vital River Laboratory Animal Co., Ltd. (Shanghai/Beijing, P.R. China) and divided into 2 treatment groups. […] was dosed with one low dose (1 mg/kg) and one high dose group (20 mg/kg). For the low-dose groups, nine animals were required for organ quantification with termination at 24 hours. For the high-dose groups, 12 animals were required for organ quantification with termination at 48 hours. The animal was administered either 1 mg/kg or 20 mg/kg of formulation solution (10% HP-β-CD in acetate buffer at pH 4.0) by IV bolus through the left lateral tail vein injection. […] Blood samples were placed on wet ice, mixed, then frozen and stored in a freezer set to -60 °C or lower until analysis. After the blood samples were collected at the terminal time points, the animals were sacrificed, and the liver, lung and kidney were harvested. The tissues were rinsed in cold water and then blotted on filter papers, weighed and homogenized using pre-cooled water at the ratio of 1:4. The tissue homogenate samples were kept at -70 °C until analysis. […] Working standard solutions were spiked into 25 μL of blank matrix on the sample plate. […] The supernatant (20 μL) was transferred into the MS injection plate, then diluted with water before injection for LC-MS/MS analysis. The concentrations of […] were quantified by an LC-MS/MS method. The LC-MS/MS system was a Waters Acquity UPLC System (Milford, MA) coupled to a Sciex Triple Quad 6500 Plus mass spectrometer (AB Sciex, Foster City, CA). The aqueous mobile phase for the analysis was 0.1% formic acid and 2 mM ammonium formate in water/ACN (v:v, 95:5) (A), and the organic mobile phase was 0.1% formic acid and 2 mM ammonium formate in ACN/water (v:v, 95:5) (B). […] Column temperature was set at 50 °C. […] The flow rate was set at 0.7 mL/min. […] The lower limit of quantitation in all matrices was 5.1 ng/mL. The mean time concentration profile was generated for each group, and an overall AUC was then calculated with these sparse samples of rats and mice. […] The following parameters were estimated whenever possible: C0, Back-extrapolated concentration at time 0; Cmax, Maximum observed concentration; Tmax, Time of maximum observed concentration; AUC0-t, Area under the concentration-time curve from hour 0 to the last measurable concentration, estimated by the linear trapezoidal rule; AUC0-336, Area under the concentration-time curve from hour 0 to hour 336, estimated by the linear trapezoidal rule; DN AUC0-336, Dose normalized AUC0-336, calculated as AUC0-336/dose level; […] AUC0-∞ = AUC0-t + Ct/λz, where Ct is the last measurable concentration and λz is the elimination rate constant; t1/2, Elimination half-life, determined by ln(2)/λz; CL, Clearance, calculated as dose/AUC0-inf; Vd, Volume of distribution based on the terminal phase, calculated as: dose/(λz × AUC0-∞) Nominal doses and sampling times were used. […] Embedded zeros were excluded from kinetic analysis.

[1] = male, CD-1, mouse, in vivo, 1 mg/kg, Kidney, 1 mg/kg IV, individual animals, read-out: Concentration (µM) from 1 mg/kg Dosing Kidney
[2] = male, CD-1, mouse, in vivo, 1 mg/kg, Kidney, 1 mg/kg IV, mean, read-out: Concentration (µM) from 1 mg/kg Dosing Kidney
[3] = male, CD-1, mouse, in vivo, 1 mg/kg, Liver, 1 mg/kg IV, individual animals, read-out: Concentration (µM) from 1 mg/kg Dosing Liver
[4] = male, CD-1, mouse, in vivo, 1 mg/kg, Liver, 1 mg/kg IV, mean, read-out: Concentration (µM) from 1 mg/kg Dosing Liver
[5] = male, CD-1, mouse, in vivo, 1 mg/kg, Lung, 1 mg/kg IV, individual animals, read-out: Concentration (µM) from 1 mg/kg Dosing Lung
[6] = male, CD-1, mouse, in vivo, 1 mg/kg, Lung, 1 mg/kg IV, mean, read-out: Concentration (µM) from 1 mg/kg Dosing Lung
[7] = male, CD-1, mouse, in vivo, 20 mg/kg, Blood, 20 mg/kg IV, individual animals, read-out: Concentration (µM) from 20 mg/kg Dosing Blood
[8] = male, CD-1, mouse, in vivo, 20 mg/kg, Blood, 20 mg/kg IV, mean, read-out: Concentration (µM) from 20 mg/kg Dosing Blood
[9] = male, CD-1, mouse, in vivo, 20 mg/kg, Kidney, 20 mg/kg IV, individual animals, read-out: Concentration (µM) from 20 mg/kg Dosing Kidney
[10] = male, CD-1, mouse, in vivo, 20 mg/kg, Kidney, 20 mg/kg IV, mean, read-out: Concentration (µM) from 20 mg/kg Dosing Kidney
[11] = male, CD-1, mouse, in vivo, 20 mg/kg, Liver, 20 mg/kg IV, mean, read-out: Concentration (µM) from 20 mg/kg Dosing Liver
[12] = male, CD-1, mouse, in vivo, 20 mg/kg, Lung, 20 mg/kg IV, individual animals, read-out: Concentration (µM) from 20 mg/kg Dosing Lung
[13] = male, CD-1, mouse, in vivo, 20 mg/kg, Lung, 20 mg/kg IV, mean, read-out: Concentration (µM) from 20 mg/kg Dosing Lung
[14] = male, CD-1, mouse, kidney, intravenous, 20 mg/kg, Kidney, 20 mg/kg IV, individual animals, read-out: Concentration (µM) from 20 mg/kg Dosing Kidney
[15] = male, CD-1, mouse, kidney, intravenous, 20 mg/kg, Kidney, 20 mg/kg IV, mean, read-out: Concentration (µM) from 20 mg/kg Dosing Kidney
[16] = male, CD-1, mouse, liver, intravenous, 20 mg/kg, Liver, 20 mg/kg IV, mean, read-out: Concentration (µM) from 20 mg/kg Dosing Liver
[17] = male, CD-1, mouse, lung, intravenous, 20 mg/kg, Lung, 20 mg/kg IV, mean, read-out: Concentration (µM) from 20 mg/kg Dosing Lung

Cc1ncsc1-c1ccc(C(C)NC(=O)C2CC(O)CN2C(=O)C(c2cc(N3CCC(CN4CCC(OC5CC(Oc6cc(N7C8CCC7CN(c7cc(-c9ccccc9O)nnc7N)C8)ccn6)C5)CC4)CC3)no2)C(C)C)cc1 (centres unmarked) [A947]
concentration at 4 h (male, CD-1, mouse, in vivo, 1 mg/kg, Blood, 1 mg/kg IV, mean, read-out: Concentration (µM) from 1 mg/kg Dosing Blood): 0.005 µM | concentration at 4 h [1]: 0.753 µM | concentration at 4 h [2]: 0.561 µM | concentration at 8 h [1]: 0.282 µM | concentration at 8 h [2]: 0.32 µM | concentration at 24 h [1]: 0.019 µM | concentration at 24 h [2]: 0.023 µM | concentration at 4 h [3]: 0.071 µM | concentration at 4 h [4]: 0.079 µM | concentration at 8 h [3]: 0.057 µM | concentration at 8 h [4]: 0.045 µM | concentration at 24 h (male, CD-1, mouse, in vivo, 1 mg/kg, Liver, 1 mg/kg IV, individual animals, BLOQ <5.1 ng/mL, read-out: Concentration (µM) from 1 mg/kg Dosing Liver): 0.006 µM | concentration at 24 h [4]: 0.006 µM | concentration at 4 h [5]: 0.098 µM | concentration at 4 h [6]: 0.094 µM | concentration at 8 h [5]: 0.048 µM | concentration at 8 h [6]: 0.062 µM | concentration at 24 h [5]: 0.014 µM | concentration at 24 h [6]: 0.014 µM | concentration at 0.083 h [7]: 13.3 µM | concentration at 0.083 h [8]: 11.1 µM | concentration at 0.25 h [7]: 4.28 µM | concentration at 0.25 h [8]: 3.65 µM | concentration at 0.5 h [7]: 2.54 µM | concentration at 0.5 h [8]: 1.93 µM | concentration at 1 h [7]: 0.951 µM | concentration at 1 h [8]: 0.847 µM | concentration at 2 h [7]: 0.294 µM | concentration at 2 h [8]: 0.252 µM | concentration at 4 h [8]: 0.154 µM | concentration at 8 h [7]: 0.048 µM | concentration at 8 h [8]: 0.047 µM | concentration at 4 h [9]: 16.9 µM | concentration at 4 h [10]: 14 µM | concentration at 8 h [9]: 6.14 µM | concentration at 8 h [10]: 8.43 µM | concentration at 4 h [11]: 48.4 µM | concentration at 8 h (male, CD-1, mouse, in vivo, 20 mg/kg, Liver, 20 mg/kg IV, individual animals, read-out: Concentration (µM) from 20 mg/kg Dosing Liver): 15.1 µM | concentration at 8 h [11]: 19.2 µM | concentration at 4 h [12]: 5.1 µM | concentration at 4 h [13]: 5.75 µM | concentration at 8 h [12]: 1.59 µM | concentration at 8 h [13]: 2.31 µM | concentration at 24 h [14]: 0.28 µM | concentration at 24 h [15]: 0.361 µM | concentration at 48 h [14]: 0.11 µM | concentration at 48 h [15]: 0.086 µM | Kp (male, CD-1, mouse, kidney, intravenous, 20 mg/kg, for the 2 dose levels (1, 20 mg/kg), read-out: Tissue-to-blood AUC ratio, kidney): 160 to 243 | concentration at 24 h (male, CD-1, mouse, liver, intravenous, 20 mg/kg, Liver, 20 mg/kg IV, individual animals, read-out: Concentration (µM) from 20 mg/kg Dosing Liver): 14.3 µM | concentration at 24 h [16]: 10.8 µM | concentration at 48 h [16]: 1.9 µM | Kp (male, CD-1, mouse, liver, intravenous, for the 2 dose levels, read-out: Tissue-to-blood AUC ratio, liver): 50 to 127 | concentration at 24 h [17]: 0.602 µM | concentration at 48 h [17]: 0.658 µM | Kp (male, CD-1, mouse, lung, intravenous, for the 2 dose levels, read-out: Tissue-to-blood AUC ratio, lung): 26 to 50 | clearance (male, CD-1, mouse, whole blood, iv, CD-1 mice IV, blood, dose = c0): 15 to 20 mL/min/kg | Tmax (male, blood, kidney, liver, lung (per row, column Matrix), CD-1 mice IV): 0.083 h | Tmax (male, kidney, liver, lung, CD-1 mice IV): 4 h | Initial decrease of concentration in blood (mice IV 1 and 20 mg/kg, within initial 4 hours): > 90%
